Experiments:
Assay in all cases: relative viability (nuclei count vs DMSO), 5 days (fraction); higher = more cells survive
Zebularine + Alpelisib = compound: O=c1ncccn1[C@@H]1O[C@H](CO)[C@@H](O)[C@H]1O [Zebularine] + Cc1nc(NC(=O)N2CCC[C@H]2C(N)=O)sc1-c1ccnc(C(C)(C)C(F)(F)F)c1 [Alpelisib] (partner 2 µM)
How it was run: (§1)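 A single step with final 0.05% Triton X-100, 1% formaldehyde and 1 ug/ml Hoechst fixed the cells and stained nuclei 5 days after treatment. Lung cancer cell lines in 1536-well plates had been treated by pin tool the day after seeding with one drug alone or a fixed anchor-drug dose plus five library-drug doses (not always all listed) in √10 steps, and nuclei were counted on 4× images. Relative viability is the ratio of nuclei in treated wells to nuclei in vehicle wells, taken as the median of duplicate plates.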

Zebularine + Tozasertib = compound: O=c1ncccn1[C@@H]1O[C@H](CO)[C@@H](O)[C@H]1O [Zebularine] + Cc1cc(Nc2cc(N3CCN(C)CC3)nc(Sc3ccc(NC(=O)C4CC4)cc3)n2)n[nH]1 [Tozasertib] (partner 0.1 µM)
How it was run: as §1

Zebularine + Palbociclib = compound: O=c1ncccn1[C@@H]1O[C@H](CO)[C@@H](O)[C@H]1O [Zebularine] + CC(=O)c1c(C)c2cnc(Nc3ccc(N4CCNCC4)cn3)nc2n(C2CCCC2)c1=O [Palbociclib] (partner 0.5 µM)
How it was run: as §1

Zebularine + Phenformin = compound: O=c1ncccn1[C@@H]1O[C@H](CO)[C@@H](O)[C@H]1O [Zebularine] + N=C(N)NC(=N)NCCc1ccccc1 [Phenformin] (partner 250 µM)
How it was run: as §1

Row | Cell Line | relative viability (Zebularine + Alpelisib; first compound 1 µM) | relative viability (Zebularine + Alpelisib; first compound 3.162 µM) | relative viability (Zebularine + Alpelisib; first compound 31.62 µM) | relative viability (Zebularine + Alpelisib; first compound 100 µM) | relative viability (Zebularine + Tozasertib; first compound 1 µM) | relative viability (Zebularine + Tozasertib; first compound 3.162 µM) | relative viability (Zebularine + Tozasertib; first compound 10 µM) | relative viability (Zebularine + Tozasertib; first compound 31.62 µM) | relative viability (Zebularine + Tozasertib; first compound 100 µM) | relative viability (Zebularine + Palbociclib; first compound 1 µM) | relative viability (Zebularine + Palbociclib; first compound 3.162 µM) | relative viability (Zebularine + Palbociclib; first compound 31.62 µM) | relative viability (Zebularine + Palbociclib; first compound 100 µM) | relative viability (Zebularine + Phenformin; first compound 1 µM) | relative viability (Zebularine + Phenformin; first compound 3.162 µM) | relative viability (Zebularine + Phenformin; first compound 10 µM) | relative viability (Zebularine + Phenformin; first compound 31.62 µM) | relative viability (Zebularine + Phenformin; first compound 100 µM) | relative viability (Zebularine + Alpelisib; first compound 10 µM) | relative viability (Zebularine + Palbociclib; first compound 10 µM)
1 | NCI-H23 | 0.577 | 0.709 | 0.775 | 0.563 | 0.36 | 0.382 | 0.234 | 0.462 | 0.284 | 0.482 | 0.473 | 0.576 | 0.411 | 0.847 | 0.821 | 0.423 | 0.75 | 0.77 |  | 
2 | NCI-H322M | 0.732 | 0.756 | 0.673 | 0.676 | 0.494 | 0.486 | 0.372 | 0.47 | 0.465 | 0.467 | 0.486 | 0.463 | 0.496 | 0.816 | 0.747 | 0.568 | 0.73 | 0.671 | 0.772 | 0.471
3 | NCI-H358 | 0.888 | 0.786 | 0.495 | 0.266 | 0.111 | 0.101 | 0.0883 | 0.108 | 0.0887 | 0.213 | 0.128 | 0.131 | 0.132 | 0.354 | 0.261 | 0.209 | 0.227 | 0.154 | 0.578 | 0.134
4 | NCI-H441 | 0.779 | 0.73 | 0.271 | 0.264 | 0.825 | 0.711 | 0.334 | 0.221 | 0.344 | 0.235 | 0.21 | 0.148 | 0.181 | 0.803 | 0.73 | 0.366 | 0.309 | 0.396 | 0.496 | 0.207
5 | NCI-H460 | 0.519 | 0.679 | 0.215 | 0.115 | 0.61 | 0.499 | 0.529 | 0.193 | 0.0561 | 0.201 | 0.136 | 0.117 | 0.0697 | 0.601 | 0.592 | 0.364 | 0.127 | 0.0588 | 0.217 | 0.161
6 | NCI-H520 | 1.1 | 0.835 | 0.375 | 0.275 | 0.43 | 0.561 | 0.353 | 0.269 | 0.25 | 0.213 | 0.217 | 0.201 | 0.175 | 0.76 | 0.6 | 0.313 | 0.332 | 0.206 | 0.429 | 0.202
7 | NCI-H647 | 1.05 | 0.932 | 0.246 | 0.167 | 0.284 | 0.353 | 0.152 | 0.144 | 0.265 | 0.334 | 0.34 | 0.0894 | 0.104 | 0.539 | 0.48 | 0.178 | 0.22 | 0.12 | 0.422 | 0.149
8 | NCI-H650 | 1.04 | 1.2 | 0.462 | 0.319 | 0.756 | 0.656 | 0.524 | 0.346 | 0.238 | 0.358 | 0.376 | 0.263 | 0.195 | 0.454 | 0.45 | 0.409 | 0.295 | 0.285 | 0.894 | 0.296

Source: the supplement of paper PMC10307832
